# Several values for one entry are separate records, joined by “and”; a condition that tells them apart may be missing. Equal values may be shown once.
# What was measured:
# [1] = set-up: method as in Alvarez et al., 2008; settings: ref Alvarez et al., 2008, cited from earlier work
# [2] = tested on: TCBZ-resistant F. hepatica (Sligo isolate); test: Clinical efficacy study: fluke counts 15 days after treatment; assay type: in vivo, Fasciola hepatica
# Procedure: (§1) Animals were each orally infected with eighty (80) metacercariae of a TCBZ-resistant F. hepatica isolate, named Sligo. For details of the history of the Sligo isolate, see previous works. Sixteen weeks after infection, animals were randomly distributed into three experimental groups (n = 4 each): Group I, which represented the untreated control group; Group II, in which animals were treated with TCBZ (Fasinex®, Novartis) by the i.r. route at 10 mg/kg dose rate; and Group III, in which animals were simultaneously treated with TCBZ (Fasinex®, Novartis) by the i.r. route (10 mg/kg) and IVM (Ivosint®, Biogénesis) by the s.c. route (0.2 mg/kg, internal face of the thigh). Additionally, animals in Group III were treated by the intramuscular (i.m.) route (Semitendinosus muscle) with MTZ (2.5% aqueous solution) at a dose rate of 1.5 mg/kg. MTZ administration was performed 30 min after TCBZ/IVM treatment. Blood samples (5 ml) were taken by jugular venipunctures into heparinised Vacutainers® tubes (Becton Dickinson, USA) before administration (time 0) and at 1, 3, 6, 9, 12, 18, 24, 30, 36, 48, 72, 96, 120 and 144 h post-treatment. Plasma was separated by centrifugation at 3000 g for 15 min, placed into plastic tubes and frozen at -20°C until analyzed by high performance liquid chromatography (HPLC).
# Fifteen days after treatment all animals were stunned and exsanguinated immediately. Adult F. hepatica specimens were recovered from the common bile ducts and the gall bladder of each sheep and counted according to the World Association for the Advancement of Veterinary Parasitology (W.A.A.V.P) guidelines. The efficacy of each anthelmintic treatment was determined by the comparison of F. hepatica burdens in treated versus untreated animals. The following equation expresses the percent efficacy (% E) of a drug treatment against F. hepatica (F.h.) in a single treatment group (T) when compared with an untreated control (C). [drawing 1]
# The geometric mean was used as it most accurately represents the distribution of parasite populations within each group.
# [3] = Plasma disposition kinetics of TCBZ metabolites in F. hepatica-infected sheep (HPLC, non-compartmental analysis); assay type: in vivo; settings: for AUC0-∞ / AUC0-t / Cmax / MRT (mean residence time) / T1/2el (elimination half-life) / T1/2for (formation half life) / Tmax: in vivo, 10 mg/kg; for Time metabolites were recovered in plasma post-treatment: sheep plasma, both treated groups, last sampling time 144 h; for AUC0-t / Cmax / MRT (mean residence time) / T1/2el (elimination half-life) / T1/2for (formation half life) / Tmax: sheep
# Procedure: as §1
# TCBZ and its metabolites were extracted from plasma as previously described. Samples (1 ml) were spiked with 10 μl of oxibendazole (OBZ) (100 μg/ml), used as internal standard. After addition of 2 ml of acetonitrile, samples were shaken for 20 min (multivortex) and then centrifuged at 2500 g for 15 min. The supernatants were recovered and evaporated to dryness in a vacuum concentrator (Speed-Vac®, Savant, Los Angeles, USA). The dry extracts were reconstituted in 300 μl of mobile phase and an aliquot of 50 μl was injected into the HPLC system.
# Experimental and fortified plasma samples were analysed by HPLC to determine the concentration of TCBZ and its metabolites following the methodology previously described. The elution from the stationary phase (Selectosil C18 column, 5 μm, 250 × 4.6 mm, Phenomenex®, CA, USA) was carried out at a flow rate of 1.2 ml/min, using a mixture of acetonitrile/ammonium acetate (0.025 M, pH 6.6) as mobile phase. Fifty μl of each previously extracted sample were injected into a Shimadzu 10 A HPLC System (Kyoto, Japan), using a gradient pump, UV detector set at 300 nm, an autosampler and a controller (Shimadzu Class LC10, Kyoto, Japan). Analytes were identified by the retention times of pure reference standards. Chromatographic retention times were: 4.09 (OBZ), 5.91 (TCBZ.SO), 7.95 (TCBZ.SO2) and 10.36 (TCBZ) min. […] The absolute recovery of drug analytes from plasma was calculated by comparison of the peak areas from spiked plasma samples with the peak areas resulting from direct injections of standards in mobile phase. Mean absolute recoveries and coefficient of variations (CV) within the concentration range between 0.1 and 25 μg/ml (triplicate determinations) were 89.2% (CV: 6.74%) (TCBZ), 87.1% (CV: 6.03%) (TCBZ.SO) and 90.1% (CV: 4.75%) (TCBZ.SO2). Precision (intra- and inter-assay) was determined by analysing replicates of fortified plasma samples (n = 5) with each compound at three different concentrations (0.1, 5 and 10 μg/ml). CV ranged from 2.54 to 14.6%. The limit of quantification (LOQ) was defined as the lowest measured concentration with a CV <20% and accuracy of ±20% and an absolute recovery ≥70%. The LOQ defined for the three molecules assayed was 0.1 μg/ml. Values below LOQ were not included in the pharmacokinetic analysis.
# The concentration versus time curves for TCBZ metabolites in plasma for individual animals were fitted with the PKSolutions™ computer program/programme (Summit Research Service, Ashland, USA). Pharmacokinetic analysis of the experimental data was performed by non-compartmental analysis. […]
SMILES,Initial plasma concentration ([1]; after i.v. administration) [ng/mL],Peak plasma concentration ([1]; after s.c. administration at the same dose rate) [ng/mL],"Individual fluke counts ([2]; sheep infected with 80 metacercariae, treated 16 weeks after infection, counted 15 days post-treatment, one value per animal (n = 4))","Arithmetic mean fluke count ([2]; sheep, 15 days post-treatment, n = 4, untreated control 13.25)","Clinical efficacy ([2]; sheep, 15 days post-treatment, versus untreated control, calculated using geometric means) [%]",AUC0-∞ [3] [µg·h/mL],Time metabolites were recovered in plasma post-treatment [3],AUC0-t [3] [µg·h/mL],Cmax [3] [µg/mL],MRT (mean residence time) [3] [h],T1/2el (elimination half-life) [3] [h],T1/2for (formation half life) [3] [h],Tmax [3] [h],Share of the total analytes found in sheep plasma ([3]; after i.r. administration of TCBZ) [%]
"CC[C@H](C)[C@H]1O[C@]2(CC[C@@H]1C)C[C@@H]1C[C@@H](C/C=C(\C)[C@@H](O[C@H]3C[C@H](OC)[C@@H](O[C@H]4C[C@H](OC)[C@@H](O)[C@H](C)O4)[C@H](C)O3)[C@@H](C)/C=C/C=C3\CO[C@@H]4[C@H](O)C(C)=C[C@@H](C(=O)O1)[C@]34O)O2 [IVM, ivermectin]",281.2 ± 32.6,21.3 ± 13.3,–,–,–,–,–,–,–,–,–,–,–,–
"CSc1nc2cc(Cl)c(Oc3cccc(Cl)c3Cl)cc2[nH]1 [TCBZ alone, 6-chloro-5(2-3 dichlorophenoxy)-2-methyl thio-benzimidazole]",–,–,2 and 12 and 8 and 5,6.75,56,–,–,–,–,–,–,–,–,–
"CS(=O)(=O)c1nc2cc(Oc3cccc(Cl)c3Cl)c(Cl)cc2[nH]1 [TCBZ.SO2, triclabendazole sulphone]",–,–,–,–,–,917.9 ± 270.6,up to 144 h,868.2 ± 217.6,13.5 ± 1.68,61.3 ± 17.2,26.8 ± 10.9,12.3 ± 2.90,39.0 ± 6.00,–
"C[S+]([O-])c1nc2cc(Oc3cccc(Cl)c3Cl)c(Cl)cc2[nH]1 (stereo not shown) [TCBZ.SO, triclabendazole sulphoxide]",–,–,–,–,–,661.5 ± 148.5,up to 144 h,653.9 ± 140.6,14.0 ± 0.85,38.8 ± 10.5,17.5 ± 8.45,6.85 ± 2.18,22.5 ± 7.55,42
